Measured values reported in PubChem BioAssay AID1963854 (Molecular Pharmacology Branch, DTP, NCI, 2024).
pIC50: −log10 of the molar value. Values joined by “and” are separate entries in the source; they are usually repeats but may differ in a detail not shown here. Equal entries are not always repeated.

Test system: 186277-243-T-J2-PDC complex spheroid viability
Assay: Anticancer human tumor 186277-243-T-J2-PDC patient-derived colon adenocarcinoma cell line growth inhibition [POLQ]
Conditions: for viability, T/C: stronger effect = lower value
Experimental: Multicellular complex tumor spheroid response to Polymerase (POL) inhibitors (novobiocin, ART-558, RP6685) in combination with a variety of drugs and investigational agents in selected tumor cell lines
The POL inhibitors (novobiocin, ART-558, and RP6685) were evaluated both individually and in combination with standard of care and investigational anticancer small molecules within a complex spheroid model of solid tumors. . Complex spheroids include a stromal component modeled by human endothelial cells (HUVEC) and fibroblasts modeled by human mesenchymal stem cells (MSCs). The concentration ranges selected for each drug and investigational agent were based upon clinically achievable concentrations if the clinical Cmax of the agent was known.
Compounds. The drugs and investigational agents: novobiocin (NSC847541), ART-558 (NSC835418), RP-6685 (NSC848927), peposertib (NSC802822), ceralasertib (NSC780249), elimusertib (NSC800525), camonsertib (NSC841442), AZD-1390 (NSC803789), olaparib (NSC753686), talazoparib (NSC767125), rucaparib (NSC756644), sotorasib (NSC818433), MRTX-1133 (NSC836407), SN-38 (NSC673596), topotecan (NSC609699), epotoside (NSC141540), doxorubicin (NSC123127), gemcitabine (NSC613327), 5-fluorouracil (NSC19893), paclitaxel (NSC125973), vemurafenib (NSC761431), MSA-2 (NSC828583), SN-011 (NSC837082), adavosertib (NSC754352), prexasertib (NSC758257), carboplatin (NSC241240) and oxaliplatin (NSC266046), were obtained from the National Cancer Institute (NCI) Developmental Therapeutics Program Chemical Repository (21). The FDA-approved anticancer drug set is available from the Developmental Therapeutics Program at https://dtp.cancer.gov/organization/dscb/obtaining/. […] The stock solutions were prepared in dimethyl sulfoxide (DMSO, Sigma-Aldrich, St. Louis, MO, cat. D2650), except for the platinum compounds which were prepared in saline (Quality Biological, Gaithersburg, MD, cat. 114-055-101), at 800-fold the tested concentration and stored at -70 degrees C prior to their use. All drugs and investigational agents were tested over a range starting from a high concentration at or near the clinical Cmax and decreasing in half-log increments. If the clinical Cmax for an agent had not been determined, the highest concentration tested was 10 microM, except for SN-38, which was tested at a high concentration of 1 microM.
Cell Culture. All cells were maintained in an incubator at 37 degrees C and 5% CO2 with 95% humidity. The PDC lines were cultured according to standard operating procedures established by the NCI PDMR (https://pdmr.cancer.gov). Table 3 of the manuscript, lists the cell lines along with the number of the three cell types plated to form the mct-spheroids and media for tumor cell growth. After thawing, all PDC lines, except 997537-175-T-J1-PDC and 415267-285-R-J2-PDC, were cultured in Matrigel-coated flasks prepared with a working solution of 1X Ham's F-12 nutrient mix, without supplementation (Thermo Fisher Scientific, cat. 11765054), 100 U/mL penicillin-streptomycin (Thermo Fisher Scientific, cat. 15140122), and 2.5% Matrigel (Corning Inc., Corning, NY, cat. 354248) for the first three passages. The two PDC lines 997537-175-T-J1-PDC and 415267-285-R-J2-PDC were cultured on uncoated flasks. The 857933-349-R-J2-PDC line was cultured in 6C/Colon 1B media containing advanced DMEM/F-12 (Thermo Fisher Scientific, cat. 12634028), 10 mM HEPES (Thermo Fisher Scientific, cat. 15630080), 1X GlutaMAX supplement (Thermo Fisher Scientific, cat. 35050061), 0.1 mg/mL primocin (InvivoGen, San Diego, CA, cat. ant-pm-2), 10% defined fetal bovine serum, heat inactivated (HyClone Laboratories Inc., Logan, UT, cat. SH30070.03HI), 50% L-WRN conditioned media (ATCC, cat. CRL-3276), 1.25 mM N-Acetyl-L-cysteine (Sigma-Aldrich, cat. A9165), 10 mM nicotinamide (Sigma-Aldrich, cat. N0636), 1X B-27 supplement (Thermo Fisher Scientific, cat. 17504044), 1X N-2 supplement (Thermo Fisher Scientific, cat. […]
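Also: spheroids exposed to compounds for seven days.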
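For viability, T/C in this document: 100% = DMSO vehicle control viability.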

With `Cn1ncnc1[C@H]1c2n[nH]c(=O)c3cc(F)cc(c23)N[C@@H]1c1ccc(F)cc1` the viability, T/C (compound 0.000316 µM) was 102% and 96.7% and 107%, the viability, T/C (compound 0.001 µM) was 100% and 97.4% and 94.3% and the viability, T/C (compound 0.00316 µM) was 104% and 101% and 97%. The viability, T/C (compound 0.01 µM) was 118% and 100% and 105%, the viability, T/C (compound 0.0316 µM) was 118% and 137% and 114% and the viability, T/C (compound 0.1 µM) was 109% and 124% and 103%. The pIC50 (curve of compound) was under 7.00.

In the case of `COc1cc2cc(C(=O)CCC(=O)O)sc2cc1OC` + Nc1ccc(C#CCN(C(=O)Cc2ncc(C(F)(F)F)cc2C(F)(F)F)c2ccc(F)cc2)nn1, the pIC50 (curve of first compound, second compound 0.0316 µM) was under 5.00, the pIC50 (curve of first compound, second compound 0.1 µM) was under 5.00 and the pIC50 (curve of first compound, second compound 0.316 µM) was under 5.00. It also gave a pIC50 (curve of first compound, second compound 1 µM) of under 5.00, a pIC50 (curve of first compound, second compound 3.16 µM) of under 5.00 and a pIC50 (curve of first compound, second compound 10 µM) of under 5.00. The viability, T/C (second compound 0.0316 µM, first compound 0.0316 µM) was 83.5%, the viability, T/C (second compound 0.0316 µM, first compound 0.1 µM) was 87.3% and the viability, T/C (second compound 0.0316 µM, first compound 0.316 µM) was 92.9%. For the same compound, the viability, T/C (second compound 0.0316 µM, first compound 1 µM) was 88.7%, the viability, T/C (second compound 0.0316 µM, first compound 3.16 µM) was 93.4% and the viability, T/C (second compound 0.0316 µM, first compound 10 µM) was 85.6%. It also gave a viability, T/C (second compound 0.1 µM, first compound 0.0316 µM) of 96.3%, a viability, T/C (second compound 0.1 µM, first compound 0.1 µM) of 98.5% and a viability, T/C (second compound 0.1 µM, first compound 0.316 µM) of 91%. The viability, T/C (second compound 0.1 µM, first compound 1 µM) was 100%, the viability, T/C (second compound 0.1 µM, first compound 3.16 µM) was 90.3% and the viability, T/C (second compound 0.1 µM, first compound 10 µM) was 103%. For the same compound, the viability, T/C (second compound 0.316 µM, first compound 0.0316 µM) was 97.5%, the viability, T/C (second compound 0.316 µM, first compound 0.1 µM) was 87.5% and the viability, T/C (second compound 0.316 µM, first compound 0.316 µM) was 87%. The viability, T/C (second compound 0.316 µM, first compound 1 µM) was 91.9%, the viability, T/C (second compound 0.316 µM, first compound 3.16 µM) was 89.9% and the viability, T/C (second compound 0.316 µM, first compound 10 µM) was 97.8%. For the same compound, the viability, T/C (second compound 1 µM, first compound 0.0316 µM) was 96.1%, the viability, T/C (second compound 1 µM, first compound 0.1 µM) was 96.5% and the viability, T/C (second compound 1 µM, first compound 0.316 µM) was 92.2%. For the same compound, the viability, T/C (second compound 1 µM, first compound 1 µM) was 94.3%, the viability, T/C (second compound 1 µM, first compound 3.16 µM) was 94.8% and the viability, T/C (second compound 1 µM, first compound 10 µM) was 83.2%. For the same compound, the viability, T/C (second compound 3.16 µM, first compound 0.0316 µM) was 78.8%, the viability, T/C (second compound 3.16 µM, first compound 0.1 µM) was 105% and the viability, T/C (second compound 3.16 µM, first compound 0.316 µM) was 90%. It also gave a viability, T/C (second compound 3.16 µM, first compound 1 µM) of 90.7%, a viability, T/C (second compound 3.16 µM, first compound 3.16 µM) of 98.9% and a viability, T/C (second compound 3.16 µM, first compound 10 µM) of 93.5%. The viability, T/C (second compound 10 µM, first compound 0.0316 µM) was 106%, the viability, T/C (second compound 10 µM, first compound 0.1 µM) was 94.8% and the viability, T/C (second compound 10 µM, first compound 0.316 µM) was 81.5%. It also gave a viability, T/C (second compound 10 µM, first compound 1 µM) of 90%, a viability, T/C (second compound 10 µM, first compound 3.16 µM) of 90.5% and a viability, T/C (second compound 10 µM, first compound 10 µM) of 96.5%.
